# Measured values: paper PMC6349357, “Computational and experimental analysis of bioactive peptide linear motifs in the integrin adhesome” (PLoS ONE, 2019)
# Entries after “also recorded” stand apart in the source; their conditions may differ. Marks after values point to notes of the source that are not given here.
# Key:
# [1] = test system: resting platelets; assay: Platelet aggregation induced by peptide in resting washed platelets (activation); type: cell-based, human (healthy volunteers)
# Method in brief: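 Washed human platelets (from ACD blood, PGE1-treated) were used at 3x10^5/μl in buffer A pH 7.4 with 1.8 mM CaCl2. Light-transmission aggregometry ran at 37°C with stirring at 1100 rpm. Peptide or buffer was added at 2 min, TRAP 6 min later, and aggregation was recorded for a further 7 min.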
# [2] = molecular target: T1, vinculin (Homo sapiens, UniProt P18206); assay: Surface plasmon resonance, peptides injected over immobilised vinculin; type: binding; settings: SPR, CM5 chip, serial peptide injections at 1 mM; rank order
# T1 sequence (P18206 1-1066 isoform P18206-2): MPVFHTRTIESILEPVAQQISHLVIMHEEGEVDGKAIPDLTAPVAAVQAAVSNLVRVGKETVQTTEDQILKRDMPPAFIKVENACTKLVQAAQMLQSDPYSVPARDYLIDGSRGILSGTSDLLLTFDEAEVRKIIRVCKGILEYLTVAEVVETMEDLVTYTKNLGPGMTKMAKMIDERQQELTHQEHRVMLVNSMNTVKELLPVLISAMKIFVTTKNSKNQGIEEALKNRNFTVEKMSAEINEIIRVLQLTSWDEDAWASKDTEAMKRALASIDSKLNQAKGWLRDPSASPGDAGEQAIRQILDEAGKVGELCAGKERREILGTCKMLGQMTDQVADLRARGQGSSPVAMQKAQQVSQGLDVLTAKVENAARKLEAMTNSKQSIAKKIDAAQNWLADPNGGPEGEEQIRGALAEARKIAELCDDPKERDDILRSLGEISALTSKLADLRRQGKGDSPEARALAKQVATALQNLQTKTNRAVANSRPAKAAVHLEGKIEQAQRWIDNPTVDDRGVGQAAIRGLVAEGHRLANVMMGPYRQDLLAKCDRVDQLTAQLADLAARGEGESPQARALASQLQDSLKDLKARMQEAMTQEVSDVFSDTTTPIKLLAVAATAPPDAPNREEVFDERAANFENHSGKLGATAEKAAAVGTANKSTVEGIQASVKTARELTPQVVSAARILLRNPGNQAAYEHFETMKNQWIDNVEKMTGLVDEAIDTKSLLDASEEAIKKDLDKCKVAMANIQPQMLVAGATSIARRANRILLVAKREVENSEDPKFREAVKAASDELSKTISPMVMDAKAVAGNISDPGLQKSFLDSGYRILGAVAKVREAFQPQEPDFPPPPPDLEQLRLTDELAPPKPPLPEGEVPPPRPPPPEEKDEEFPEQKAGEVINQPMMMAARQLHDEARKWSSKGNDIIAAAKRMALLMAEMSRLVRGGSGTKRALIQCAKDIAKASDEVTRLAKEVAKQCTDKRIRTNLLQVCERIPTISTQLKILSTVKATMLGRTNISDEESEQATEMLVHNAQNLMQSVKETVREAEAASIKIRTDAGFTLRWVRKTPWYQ
# Experimental: The SPR experiments were performed using a Biacore T200 system (GE Healthcare), and Series S CM5 or SA chips with 4 flow cells each.
# Lyophilized vinculin was dissolved in flow buffer to a concentration of 1 mg/ml and covalently coupled onto the carboxymethylated dextran matrix of CM5 sensor chips using standard amine coupling. The flow buffer contained 10 mM HEPES, 150 mM NaCl, 3 mM EDTA, 0.05% surfactant P20. The chip was activated with an injection of 70 μl of a mixture of 0.05 M EDC and 0.2 M NHS, followed by the injection of approximately 70 μl of 10 μg/ml vinculin in 10 mM sodium acetate, pH 5.0 in one flow cell to yield a response of 7200 RU. Remaining reactive groups in the channel were blocked with an injection of 100 μl ethanolamine. Binding experiments were performed by injecting peptides for 120 s at a flow rate of 20 μl/min, at a concentration of 1 mM in the flow buffer over the chip surface to monitor association kinetics, followed by buffer flow for 120 s to measure dissociation kinetics. Between experiments, the surface was regenerated by injecting a 60 second pulse of 10 mM glycine pH 2.
# [3] = molecular target: T2, vinculin in HeLa cells (Homo sapiens, UniProt P18206); assay: Co-localization of 5FAM-labeled peptide with vinculin in HeLa cells (microscopy); type: cell-based; settings: 15 μM, 5-15 minutes
# T2 construct: endogenous in cells; host or cells: HeLa
# T2 sequence (P18206 1-1066 isoform P18206-2): T1 sequence (P18206 1-1066 isoform P18206-2)
# Experimental: (§1) HeLa cells were seeded on a 24-well plate with inserted coverslips at a density of 30000 cells/well. After 24h the cells were treated with 15 μM peptide for the desired amount of time (5, 10, 15 minutes). Cells were then fixed in 3% paraformaldehyde (PFA, Sigma) for 20 minutes and permeabilized with 0.1% Triton X-100 (Sigma) for 5 minutes at room temperature. Cells were then washed 3 times with PBS and stained with antibodies. Staining with primary antibody (paxillin/vinculin (Abcam)) was performed for 30 minutes, followed by three PBS washes and secondary staining using goat anti-mouse Alexa 568 antibody (Life Technologies) for 30 minutes. Then the nuclei were stained with 0.2 μg/ml Hoechst33342, the coverslips were thoroughly washed with PBS and mounted on glass slides with Mowiol mounting medium. The slides were then imaged on a FluoView FV1000 laser scanning microscope (Olympus) with 60x UPLSAPO 1.35NA (Olympus) oil immersion objective.
# [4] = molecular target: T3, paxillin in HeLa cells (Homo sapiens, UniProt P49023); assay: Co-localization of 5FAM-labeled peptide with paxillin in HeLa cells (microscopy); type: cell-based; settings: 15 μM, 5-15 minutes
# T3 construct: endogenous in cells; host or cells: HeLa
# T3 sequence (P49023 whole entry): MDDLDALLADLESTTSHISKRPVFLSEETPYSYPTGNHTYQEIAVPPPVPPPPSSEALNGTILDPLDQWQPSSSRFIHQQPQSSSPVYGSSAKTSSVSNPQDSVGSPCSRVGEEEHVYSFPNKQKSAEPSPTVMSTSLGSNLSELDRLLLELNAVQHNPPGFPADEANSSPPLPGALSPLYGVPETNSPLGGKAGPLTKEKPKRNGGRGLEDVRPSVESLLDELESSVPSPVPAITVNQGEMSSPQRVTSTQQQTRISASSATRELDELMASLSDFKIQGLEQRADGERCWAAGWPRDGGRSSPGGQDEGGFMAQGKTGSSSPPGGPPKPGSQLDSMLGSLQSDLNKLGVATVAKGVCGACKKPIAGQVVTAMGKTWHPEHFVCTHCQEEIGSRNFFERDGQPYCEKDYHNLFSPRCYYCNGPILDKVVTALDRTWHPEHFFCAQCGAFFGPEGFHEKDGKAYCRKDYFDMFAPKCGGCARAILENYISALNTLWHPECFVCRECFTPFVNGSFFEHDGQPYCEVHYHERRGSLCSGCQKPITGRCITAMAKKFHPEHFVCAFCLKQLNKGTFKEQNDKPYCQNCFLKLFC
# Experimental: as §1
substance,measurement,setting,value
tat-WEQLLTTIARTINEVENQI-(NH2) [tat-ACTN1_VBS],"Platelet activation, donor 14 06 13","[1]; Fig S10 sheet, replicate 14_06_13, peptide 50 µM, unit assumed",68%
same,"Platelet activation, donor 18 06 13","[1]; Fig S10 sheet, replicate 18_06_13, peptide 50 µM, unit assumed",73%
same,"Platelet activation, donor 22 08 13 DONOR1","[1]; Fig S10 sheet, replicate 22_08_13_DONOR1, peptide 50 µM, unit assumed",59%
same,"Platelet activation, donor 22 08 13 DONOR2","[1]; Fig S10 sheet, replicate 22_08_13_DONOR2, peptide 50 µM, unit assumed",41%
same,Activation,"[1]; platelet aggregation in resting platelets after 6 minutes incubation with peptide, pal-peptides 20 μM, tat-peptides 50 μM, optical density, aggregometer, mean, n>=3",66 ^*
same,"Aggregation before TRAP activation, donor e","[1]; replicate donor e, pal 20 μM, tat 50 μM",73
same,"Aggregation before TRAP activation, donor k","[1]; replicate donor k, pal 20 μM, tat 50 μM",59
same,"Aggregation before TRAP activation, donor l","[1]; replicate donor l, pal 20 μM, tat 50 μM",68
same,Relative binding affinity to immobilised vinculin,[2],tat-ACTN1_VBS > TLN1_VBS-tat > ACTN1_VBS-tat > ACTN1_VBS; also recorded: bound with relatively higher affinity
same,Co-localization with vinculin,[3],co-localized with vinculin
same,Co-localization with paxillin,[4],did not co-localize
